For one assay, the target named is Coagulation factor XI (Homo sapiens, UniProt P03951). Description: Inhibition of FXIa (unknown origin).
In a further assay the target is T1, Neutrophil elastase (Homo sapiens, UniProt P08246).
T1 sequence (P08246 whole entry): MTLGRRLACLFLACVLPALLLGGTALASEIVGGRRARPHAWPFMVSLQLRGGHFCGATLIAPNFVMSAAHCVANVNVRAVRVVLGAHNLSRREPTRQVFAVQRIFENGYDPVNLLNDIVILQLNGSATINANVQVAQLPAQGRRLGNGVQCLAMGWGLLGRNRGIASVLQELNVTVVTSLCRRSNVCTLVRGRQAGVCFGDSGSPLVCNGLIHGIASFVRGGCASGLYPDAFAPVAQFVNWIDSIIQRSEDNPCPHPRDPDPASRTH
Description: Inhibition of human Neutrophil elastase.

In the next assay the target is T2, Cathepsin G (Homo sapiens, UniProt P08311).
T2 sequence (P08311 whole entry): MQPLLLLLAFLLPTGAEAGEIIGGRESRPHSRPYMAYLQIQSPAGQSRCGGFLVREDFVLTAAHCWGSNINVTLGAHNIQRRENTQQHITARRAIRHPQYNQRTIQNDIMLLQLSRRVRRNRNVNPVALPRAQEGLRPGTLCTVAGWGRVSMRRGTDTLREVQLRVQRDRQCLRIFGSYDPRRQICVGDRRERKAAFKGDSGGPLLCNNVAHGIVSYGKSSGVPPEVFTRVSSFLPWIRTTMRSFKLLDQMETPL
Description: Inhibition of human cathepsin G.

Another assay concerns the target Trypsin (Homo sapiens, UniProt P07477+P07478+P35030). Description: Inhibition of human trypsin. The format is protein assay.
The target in another assay is Prothrombin (Homo sapiens, UniProt P00734). Description: Inhibition of human thrombin.
The target in another assay is Chymotrypsin (Homo sapiens, UniProt Q99895+P17538+P40313+Q6GPI1). The assay is described as follows: Inhibition of human chymotrypsin. It counts as protein assay.
The next assay concerns the target Plasminogen (Homo sapiens, UniProt P00747). The assay is described as follows: Inhibition of human plasmin.
For the next assay, the target named is T3, Coagulation factor XII (Homo sapiens, UniProt P00748).
T3 sequence (P00748 whole entry): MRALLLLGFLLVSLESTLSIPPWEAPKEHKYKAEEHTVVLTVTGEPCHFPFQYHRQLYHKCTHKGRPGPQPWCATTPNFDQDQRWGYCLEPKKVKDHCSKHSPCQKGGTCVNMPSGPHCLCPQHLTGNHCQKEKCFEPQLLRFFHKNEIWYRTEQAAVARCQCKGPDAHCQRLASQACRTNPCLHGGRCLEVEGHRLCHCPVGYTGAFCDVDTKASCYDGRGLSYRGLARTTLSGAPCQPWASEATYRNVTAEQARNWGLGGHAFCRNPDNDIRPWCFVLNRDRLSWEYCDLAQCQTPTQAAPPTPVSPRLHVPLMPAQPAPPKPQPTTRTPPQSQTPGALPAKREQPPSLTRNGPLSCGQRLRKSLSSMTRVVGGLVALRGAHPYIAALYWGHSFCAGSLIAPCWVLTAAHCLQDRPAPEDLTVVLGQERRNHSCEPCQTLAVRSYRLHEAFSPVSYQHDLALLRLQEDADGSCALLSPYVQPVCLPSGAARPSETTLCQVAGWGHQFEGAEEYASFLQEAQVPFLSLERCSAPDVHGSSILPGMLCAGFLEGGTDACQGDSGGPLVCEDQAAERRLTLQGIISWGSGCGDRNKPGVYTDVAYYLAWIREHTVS
Description: Inhibition of human FXIIa.

In a further assay the target is T4, Coagulation factor VII (Homo sapiens, UniProt P08709).
T4 sequence (P08709 whole entry): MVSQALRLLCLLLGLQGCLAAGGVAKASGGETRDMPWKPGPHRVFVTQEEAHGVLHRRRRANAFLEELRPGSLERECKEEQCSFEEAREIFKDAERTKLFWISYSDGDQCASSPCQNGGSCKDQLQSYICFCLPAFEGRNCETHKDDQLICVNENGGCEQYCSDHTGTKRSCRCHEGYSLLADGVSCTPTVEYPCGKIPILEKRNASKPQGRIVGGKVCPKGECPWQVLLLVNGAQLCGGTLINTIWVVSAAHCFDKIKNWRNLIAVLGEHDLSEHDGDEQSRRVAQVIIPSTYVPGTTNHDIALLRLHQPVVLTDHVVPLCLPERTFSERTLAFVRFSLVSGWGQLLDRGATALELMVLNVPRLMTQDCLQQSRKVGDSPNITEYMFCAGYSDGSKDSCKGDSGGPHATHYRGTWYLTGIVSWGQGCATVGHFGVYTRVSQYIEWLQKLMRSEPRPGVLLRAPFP
The assay is described as follows: Inhibition of human FVIIa.

For a further assay, the target named is Coagulation factor X (Homo sapiens, UniProt P00742). Description: Inhibition of human FXa.

SMILES strings stand for the structures.

Coagulation factor XI, sequence (P03951 19-387 limits assumed): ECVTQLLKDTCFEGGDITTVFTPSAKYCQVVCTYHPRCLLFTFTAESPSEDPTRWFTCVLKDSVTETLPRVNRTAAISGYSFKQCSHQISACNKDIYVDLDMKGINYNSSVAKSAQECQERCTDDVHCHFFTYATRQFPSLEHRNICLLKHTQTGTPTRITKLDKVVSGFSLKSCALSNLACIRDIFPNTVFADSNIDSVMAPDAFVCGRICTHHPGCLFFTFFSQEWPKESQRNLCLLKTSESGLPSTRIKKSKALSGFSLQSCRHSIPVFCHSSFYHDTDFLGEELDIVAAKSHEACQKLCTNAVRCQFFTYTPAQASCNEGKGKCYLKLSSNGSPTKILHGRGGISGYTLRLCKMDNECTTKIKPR
Coagulation factor XI, sequence (P03951 388-625 limits assumed): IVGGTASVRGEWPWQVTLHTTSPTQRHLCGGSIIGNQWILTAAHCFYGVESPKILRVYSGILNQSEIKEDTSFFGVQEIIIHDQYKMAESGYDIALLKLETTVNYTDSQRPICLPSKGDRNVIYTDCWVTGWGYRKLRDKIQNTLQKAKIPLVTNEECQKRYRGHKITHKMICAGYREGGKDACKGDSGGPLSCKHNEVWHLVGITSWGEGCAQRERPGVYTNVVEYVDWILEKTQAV
Coagulation factor X, sequence (P00742 41-179 limits assumed): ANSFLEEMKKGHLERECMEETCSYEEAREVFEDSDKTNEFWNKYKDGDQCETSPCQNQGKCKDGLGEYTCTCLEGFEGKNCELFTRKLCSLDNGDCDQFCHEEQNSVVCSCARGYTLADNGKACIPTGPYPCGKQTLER
Coagulation factor X, sequence (P00742 235-488 limits assumed): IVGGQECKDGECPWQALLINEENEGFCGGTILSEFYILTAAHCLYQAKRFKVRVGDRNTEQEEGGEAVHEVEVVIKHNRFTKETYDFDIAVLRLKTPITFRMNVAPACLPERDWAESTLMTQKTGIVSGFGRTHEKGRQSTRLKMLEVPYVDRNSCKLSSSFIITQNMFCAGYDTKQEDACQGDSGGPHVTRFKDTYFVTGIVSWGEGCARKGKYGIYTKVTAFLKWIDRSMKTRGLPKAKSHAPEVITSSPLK
Plasminogen, sequence (P00747 97-580 limits assumed): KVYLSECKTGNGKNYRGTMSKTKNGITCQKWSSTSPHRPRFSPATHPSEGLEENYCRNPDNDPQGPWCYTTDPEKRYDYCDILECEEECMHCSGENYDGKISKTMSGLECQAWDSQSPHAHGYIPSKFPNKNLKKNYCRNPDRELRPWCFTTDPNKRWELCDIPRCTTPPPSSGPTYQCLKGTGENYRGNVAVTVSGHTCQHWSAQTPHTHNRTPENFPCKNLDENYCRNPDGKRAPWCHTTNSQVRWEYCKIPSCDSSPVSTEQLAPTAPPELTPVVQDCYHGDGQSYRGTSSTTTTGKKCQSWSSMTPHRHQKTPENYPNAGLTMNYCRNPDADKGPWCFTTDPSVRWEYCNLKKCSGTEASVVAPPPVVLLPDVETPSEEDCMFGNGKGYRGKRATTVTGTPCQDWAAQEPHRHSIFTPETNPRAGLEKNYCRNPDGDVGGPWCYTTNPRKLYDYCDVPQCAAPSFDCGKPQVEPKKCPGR
Plasminogen, sequence (P00747 581-810 limits assumed): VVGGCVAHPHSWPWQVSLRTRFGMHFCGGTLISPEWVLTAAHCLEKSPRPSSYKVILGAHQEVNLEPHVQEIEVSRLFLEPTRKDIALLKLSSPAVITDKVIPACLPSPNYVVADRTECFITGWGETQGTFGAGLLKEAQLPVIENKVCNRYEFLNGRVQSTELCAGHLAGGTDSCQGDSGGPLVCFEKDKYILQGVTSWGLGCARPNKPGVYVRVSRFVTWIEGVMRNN

Take `O=C(Nc1ccc(C(=O)Nc2ccc(C(=O)Nc3ccc(OS(=O)(=O)O)c4cc(OS(=O)(=O)O)cc(OS(=O)(=O)O)c34)cc2)cc1)Nc1ccc(C(=O)Nc2ccc(C(=O)Nc3ccc(OS(=O)(=O)O)c4cc(OS(=O)(=O)O)cc(OS(=O)(=O)O)c34)cc2)cc1`: the 50% inhibitory concentration (IC50) at Coagulation factor XI was 4.6 µM; against Neutrophil elastase it was 0.22 µM; on Cathepsin G it was 0.57 µM.
Turning to `O=C(O[C@H]1[C@H](OC(=O)c2cc(OS(=O)(=O)[O-])cc(OS(=O)(=O)[O-])c2)[C@H](OC(=O)c2cc(OS(=O)(=O)[O-])cc(OS(=O)(=O)[O-])c2)[C@@H](OC(=O)c2cc(OS(=O)(=O)[O-])cc(OS(=O)(=O)[O-])c2)[C@H](OC(=O)c2cc(OS(=O)(=O)[O-])cc(OS(=O)(=O)[O-])c2)[C@H]1OC(=O)c1cc(OS(=O)(=O)[O-])cc(OS(=O)(=O)[O-])c1)c1cc(OS(=O)(=O)[O-])cc(OS(=O)(=O)[O-])c1.[Na+].[Na+].[Na+].[Na+].[Na+].[Na+].[Na+].[Na+].[Na+].[Na+].[Na+].[Na+]`, the IC50 against Coagulation factor XI was 0.28 µM; against Trypsin, above 40 µM; against Prothrombin it was above 40 µM; at Chymotrypsin, above 40 µM; against Plasminogen, above 40 µM; on Coagulation factor XII, above 40 µM. Also, the IC50 at Coagulation factor VII and at Coagulation factor X was above 40 µM each time.

Values taken from ChEMBL document CHEMBL5338745, “Factor XIa Inhibitors in Anticoagulation Therapy: Recent Advances and Perspectives” (J Med Chem, 2023).
